{
  "source": "patent US20250263376A1",
  "about": "“(E)-N-CINNAMOYLAMINOALKANOLS WITH MELANOGENESIS INHIBITORY ACTIVITY” (Uniwersytet Jagiellonski, priority 2024, published 2025);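 as to Increase in the number of yellow wells compared to the reference level, TA1535: bacteria exposed 90 min at 37 °C in exposure medium, then 48 h in indicator medium in 384-well plates, yellow (revertant) wells counted per condition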",
  "key": {"[1]": {"test_system": "reconstructed human epidermis containing melanocytes MelanoDerm MEL-300-B", "assay": "Melanogenesis inhibition in reconstructed human epidermis containing melanocytes (MelanoDerm)", "type": "cell-based", "conditions": "1.0% in 50% PEG (10 μL), 14 days, MTT", "method": "Melanogenesis Inhibition Studies in a Model of Reconstructed Human Epidermis Containing Melanocytes (MelanoDerm by Mattek).\nThe research was carried out on reconstructed human epidermis containing melanocytes MelanoDerm™ MEL-300-B from MatTek (Bratislava, Slovakia). The ratio of keratinocytes to melanocytes in the epidermis used is 10:1. Only medium purchased from the same manufacturer (EPI-100-NMM-113) was used to culture the epidermis during the experiments. Once the epidermis was obtained, it was transferred to 12-well plates containing 5 mL of medium/well. Plates were used to enable proper contact of the lower parts of the inserts with the substrate (so-called hanging-top plate). Solutions of the compounds were prepared immediately before their application. The solutions were applied to the inserts using a positive displacement pipette and then distributed using a sterile glass bulb headed Pasteur pipette. The application was repeated every 48 hours, a total of 7 applications were performed. Before the next application, each insert was rinsed with sterile DPBS and dried with a sterile cotton buds. The application was also accompanied by a change of the medium. […] The epidermis was cultured in an incubator ensuring appropriate humidity, temperature (37° C.) and CO2 concentration (5%).\nThe experiment was conducted for 14 days. After this time, the inserts were rinsed with DPBS and dried with a cotton swab. For the selected pool of inserts, tissue viability was assessed using the MTT (Thiazolyl Blue Tetrazolium bromide) test, the remaining ones were used to determine the amount of melanin. To assess viability, the inserts were transferred to 24-well plate containing 0.3 mL of DMEM medium with 1 mg/mL MTT and incubated for 3 hours in an incubator. The epidermis was then placed in 2 mL of isopropanol and the resulting formazan was extracted for 2 hours at room temperature. The absorbance of the samples was measured at 570 nm in a microplate reader and correlated with the absorbance of the control by the formula: % Viability=[OD (570 nm) for test compound/OD (570 nm) for control]×100. To determine the amount of melanin, the inserts were incubated in 5% sodium bicarbonate for 30 min, then dried and placed in 0.5 mL of Solvable™ reagent, which caused complete lysis of the epidermis. After heating at 95° C., the absorbance of the samples was measured at 405 nm in a microplate reader. On this basis, the reduction in the amount of melanin was calculated in relation to the control sample. The absorbance results were also correlated with a standard curve for synthetic melanin."}, "[2]": {"test_system": "primary melanocytes", "assay": "Safety, LDH test in primary melanocytes", "type": "cell-based", "conditions": "48 hours, vs Triton X-100"}, "[3]": {"test_system": "keratinocytes (HaCaT)", "assay": "Safety, MTT test in keratinocytes", "type": "cell-based", "conditions": "48 hours", "in_short": "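Seed cells, add compounds across 250-100 μM, incubate 48 hours, then run MTT (570 nm; viability versus DMSO control) and LDH release (colorimetric; membrane damage versus Triton X-100).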"}, "[4]": {"test_system": "hepatocarcinoma HepG2", "assay": "Safety, LDH test in HepG2", "type": "cell-based", "conditions": "48 hours, vs Triton X-100"}, "[5]": {"test_system": "S. typhimurium TA100", "assay": "Ames microplate test, TA100", "type": "cell-based, Salmonella typhimurium", "quoted_text": "(§2) The study used the Ames microplate test (Ames MPF™ Penta 2 by Xenometrix, Allschwil, Switzerland). Growth medium, exposure medium, indicator medium, positive controls, hepatic microsomal fraction, NADP, glucose-6-phosphate, Salmonella typhimurium and Escherichia coli strains were components of the purchased experimental kit. Bacteria were grown overnight in growth medium. They were then exposed to the test compound at the appropriate concentration in exposure medium without or with the rat microsomal fraction S9 in 24-well plates for 90 min at 37° C. with shaking. Then, indicator medium was added to the wells and pipetted into 384-well plates, which were incubated for 48 hours at 37° C. without shaking. Results were assessed by counting the wells in which the medium turned yellow for each experimental condition."}, "[6]": {"test_system": "E. coli WP2", "assay": "Ames microplate test, E. coli WP2;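 also: bacteria exposed to compound for 90 min at 37 °C in 24-well plates, then transferred with indicator medium to 384-well plates and incubated 48 h before yellow well counting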", "quoted_text": "as §2"}, "[7]": {"test_system": "S. typhimurium TA1537", "assay": "Ames microplate test, TA1537", "type": "cell-based, Salmonella typhimurium", "method": "(§1) Bacteria were grown overnight in growth medium."}, "[8]": {"test_system": "fibroblasts (BJ)", "assay": "Safety, MTT test in fibroblasts", "type": "cell-based", "conditions": "48 hours", "in_short": "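Viability and membrane integrity are assessed after 48 h treatment at 250-100 μM. MTT conversion by living cells is normalised to solvent control, whereas leaked lactate dehydrogenase is compared with Triton X-100 lysis.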"}, "[9]": {"test_system": "S. typhimurium TA1535", "assay": "Ames microplate test, TA1535", "quoted_text": "as §2"}, "[10]": {"test_system": "S. typhimurium TA98", "assay": "Ames microplate test, TA98", "type": "cell-based, Salmonella typhimurium", "method": "as §1"}},
  "data": [
    {"compound": "O=C(/C=C/c1ccccc1)NCCCCCO", "note": "[Compound A-133, (2E)-N-(5-hydroxypentyl)-3-phenylprop-2-enamide]", "values": [
      {"measurement": "Viability [% control, mean ± SD]", "setting": "[1]", "result": "101.22 ± 6.52", "unit": "% control"},
      {"measurement": "LDH, Primary melanocytes", "setting": "[2]; 100 μM", "result": "4.68 percentage of positive control"},
      {"measurement": "LDH, Primary melanocytes", "setting": "[2]; 150 μM", "result": "7.59 percentage of positive control"},
      {"measurement": "LDH, Primary melanocytes", "setting": "[2]; 200 μM", "result": "16.71 percentage of positive control"},
      {"measurement": "LDH, Primary melanocytes", "setting": "[2]; 250 μM", "result": "19.45 percentage of positive control"},
      {"measurement": "MTT, Keratinocytes (HaCaT)", "setting": "[3]; 100 μM", "result": "101.35 ± 2.17 % of solvent control"},
      {"measurement": "MTT, Keratinocytes (HaCaT)", "setting": "[3]; 150 μM", "result": "101.40 ± 2.08 % of solvent control"},
      {"measurement": "MTT, Keratinocytes (HaCaT)", "setting": "[3]; 200 μM", "result": "101.51 ± 2.49 % of solvent control"},
      {"measurement": "MTT, Keratinocytes (HaCaT)", "setting": "[3]; 250 μM", "result": "95.53 ± 2.80 % of solvent control"},
      {"measurement": "LDH, Hepatocarcinoma HepG2", "setting": "[4]; 100 μM", "result": "5.31 percentage of positive control"},
      {"measurement": "LDH, Hepatocarcinoma HepG2", "setting": "[4]; 150 μM", "result": "7.07 percentage of positive control"},
      {"measurement": "LDH, Hepatocarcinoma HepG2", "setting": "[4]; 200 μM", "result": "9.65 percentage of positive control"},
      {"measurement": "LDH, Hepatocarcinoma HepG2", "setting": "[4]; 250 μM", "result": "16.13 percentage of positive control"},
      {"measurement": "Increase in the number of yellow wells compared to the reference level, TA100", "setting": "[5]; 0.5 mM, + S9", "result": 0.83},
      {"measurement": "Increase in the number of yellow wells compared to the reference level, TA100", "setting": "[5]; 0.5 mM, without S9", "result": 0.60},
      {"measurement": "Increase in the number of yellow wells compared to the reference level, TA100", "setting": "[5]; 1.0 mM, + S9", "result": 0.78},
      {"measurement": "Increase in the number of yellow wells compared to the reference level, TA100", "setting": "[5]; 1.0 mM, without S9", "result": 1.03},
      {"measurement": "Increase in the number of yellow wells compared to the reference level, TA100", "setting": "[5]; 2.0 mM, + S9", "result": 0.61},
      {"measurement": "Increase in the number of yellow wells compared to the reference level, TA100", "setting": "[5]; 2.0 mM, without S9", "result": 0.57},
      {"measurement": "Increase in the number of yellow wells compared to the reference level, E. coli WP2", "setting": "[6]; 0.5 mM, + S9", "result": 0.27},
      {"measurement": "Increase in the number of yellow wells compared to the reference level, E. coli WP2", "setting": "[6]; 0.5 mM, without S9", "result": 0.73},
      {"measurement": "Increase in the number of yellow wells compared to the reference level, E. coli WP2", "setting": "[6]; 1.0 mM, + S9", "result": 0.44},
      {"measurement": "Increase in the number of yellow wells compared to the reference level, E. coli WP2", "setting": "[6]; 1.0 mM, without S9", "result": 0.37},
      {"measurement": "Increase in the number of yellow wells compared to the reference level, E. coli WP2", "setting": "[6]; 2.0 mM, + S9", "result": 0.53},
      {"measurement": "Increase in the number of yellow wells compared to the reference level, E. coli WP2", "setting": "[6]; 2.0 mM, without S9", "result": 1.10},
      {"measurement": "Increase in the number of yellow wells compared to the reference level, TA1537", "setting": "[7]; 0.5 mM, + S9", "result": 0.18},
      {"measurement": "Increase in the number of yellow wells compared to the reference level, TA1537", "setting": "[7]; 0.5 mM, without S9", "result": 1.07},
      {"measurement": "Increase in the number of yellow wells compared to the reference level, TA1537", "setting": "[7]; 1.0 mM, + S9", "result": 0.36},
      {"measurement": "Increase in the number of yellow wells compared to the reference level, TA1537", "setting": "[7]; 1.0 mM, without S9", "result": 0.54},
      {"measurement": "Increase in the number of yellow wells compared to the reference level, TA1537", "setting": "[7]; 2.0 mM, + S9", "result": 0.27},
      {"measurement": "Increase in the number of yellow wells compared to the reference level, TA1537", "setting": "[7]; 2.0 mM, without S9", "result": 0.54},
      {"measurement": "MTT, Fibroblasts (BJ)", "setting": "[8]; 100 μM", "result": "99.41 ± 5.96 % of solvent control"},
      {"measurement": "MTT, Fibroblasts (BJ)", "setting": "[8]; 150 μM", "result": "91.68 ± 3.64 % of solvent control"},
      {"measurement": "MTT, Fibroblasts (BJ)", "setting": "[8]; 200 μM", "result": "87.76 ± 2.71 % of solvent control"},
      {"measurement": "MTT, Fibroblasts (BJ)", "setting": "[8]; 250 μM", "result": "82.50 ± 3.99 % of solvent control"},
      {"measurement": "Increase in the number of yellow wells compared to the reference level, TA1535", "setting": "[9]; 0.5 mM, + S9", "result": 0.47},
      {"measurement": "Increase in the number of yellow wells compared to the reference level, TA1535", "setting": "[9]; 0.5 mM, without S9", "result": 0.92},
      {"measurement": "Increase in the number of yellow wells compared to the reference level, TA1535", "setting": "[9]; 1.0 mM, + S9", "result": 0.23},
      {"measurement": "Increase in the number of yellow wells compared to the reference level, TA1535", "setting": "[9]; 1.0 mM, without S9", "result": 0.55},
      {"measurement": "Increase in the number of yellow wells compared to the reference level, TA1535", "setting": "[9]; 2.0 mM, + S9", "result": 0.35},
      {"measurement": "Increase in the number of yellow wells compared to the reference level, TA1535", "setting": "[9]; 2.0 mM, without S9", "result": 1.10},
      {"measurement": "Increase in the number of yellow wells compared to the reference level, TA98", "setting": "[10]; 0.5 mM, + S9", "result": 0.50},
      {"measurement": "Increase in the number of yellow wells compared to the reference level, TA98", "setting": "[10]; 0.5 mM, without S9", "result": 0.44},
      {"measurement": "Increase in the number of yellow wells compared to the reference level, TA98", "setting": "[10]; 1.0 mM, + S9", "result": 0.67},
      {"measurement": "Increase in the number of yellow wells compared to the reference level, TA98", "setting": "[10]; 1.0 mM, without S9", "result": 0.33},
      {"measurement": "Increase in the number of yellow wells compared to the reference level, TA98", "setting": "[10]; 2.0 mM, + S9", "result": 1.00},
      {"measurement": "Increase in the number of yellow wells compared to the reference level, TA98", "setting": "[10]; 2.0 mM, without S9", "result": 0.67}
    ]}
  ]
}
